Experimental data reported in patent US10285865B2, “Drug-releasing device usable in mucosal body cavities” (Princeton Trade & Technololgy, Inc., priority 2014, dated 2019).
Values after ≈ are worked out from the molar mass of the structure shown.

Legend:
Format in all cases: cell-based
[1] = test system: Staphylococcus aureus LUX; assay: microbe, parasite or virus in culture
Excerpt: (§1) In an embodiment of the invention, the two forms of Ciprofloxacin can be combined in a single implant so as to achieve a desired the rate of delivery, the solubility limit of the drug in middle ear exudate or release of the drug. […]. The Minimum Inhibitory Concentration is the smallest concentration of a drug in water that will inhibit growth of a particular bacteria in solution.
(§2) The quantity Minimum Inhibitory Concentration (MIC) is the smallest concentration of a drug in water that will inhibit growth of a particular organism. It may be desirable for the administered concentration of a drug to be some multiple of this quantity. MIC for Ciprofloxacin is given here for several organisms typical of otitis media. For Pseudomonas aeruginosa, the MIC is 0.09 micrograms per milliliter. […] For Haemophilus influenza, the MIC is 0.06 micrograms per milliliter.

[2] = test system: Staphylococcus aureus GFP; assay: microbe, parasite or virus in culture
Excerpt: as §1, §2

Streptococcus pneumonia = assay: Minimum Inhibitory Concentration (MIC) in water; conditions: Streptococcus pneumoniae
Excerpt: as §1, §2

Pseudomonas aeruginosa = assay: Minimum Inhibitory Concentration (MIC) in water
Excerpt: as §1, §2

Haemophilus influenza = assay: Minimum Inhibitory Concentration (MIC) in water
Excerpt: as §1, §2

O=C(O)c1cn(C2CC2)c2cc(N3CCNCC3)c(F)cc2c1=O [Ciprofloxacin]
MIC [1]: 0.28 µg/mL (≈ 0.845 µM)
MIC [2]: 0.28 µg/mL (≈ 0.845 µM)
MIC (Streptococcus pneumonia): 0.75 µg/mL (≈ 2.26 µM)
MIC (Pseudomonas aeruginosa): 0.09 µg/mL (≈ 0.272 µM)
MIC (Haemophilus influenza): 0.06 µg/mL (≈ 0.181 µM)
